Experimental data from PubChem BioAssay (NCI).
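GI50 = concentration required for 50% inhibition of growth. TGI: concentration producing complete growth inhibition.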

Experiments:
Assay in all cases: inhibition of tumour cell growth, NCI panel, 384-well format
OVCAR-3 ovarian = test system: OVCAR-3 ovarian
MDA-MB-468 breast = test system: MDA-MB-468 breast
CCRF-CEM leukemia = test system: CCRF-CEM leukemia
HL-60(TB) leukemia = test system: HL-60(TB) leukemia
OVCAR-5 ovarian = test system: OVCAR-5 ovarian
SNB-75 CNS = test system: SNB-75 CNS
MDA-MB-435 melanoma = test system: MDA-MB-435 melanoma
OVCAR-4 ovarian = test system: OVCAR-4 ovarian
U251 glioblastoma = test system: U251 glioblastoma
A498 renal = test system: A498 renal
SF-295 CNS = test system: SF-295 CNS
A549 NSCLC = test system: A549 NSCLC
BT-549 breast = test system: BT-549 breast
SW-620 colon = test system: SW-620 colon
K-562 leukemia = test system: K-562 leukemia
SN12C renal = test system: SN12C renal
HCT-15 colon = test system: HCT-15 colon
UO-31 renal = test system: UO-31 renal
HOP-62 NSCLC = test system: HOP-62 NSCLC
T-47D breast = test system: T-47D breast
786-0 renal = test system: 786-0 renal
M14 melanoma = test system: M14 melanoma
SF-539 CNS = test system: SF-539 CNS
NCI-H522 lung = test system: NCI-H522 lung
HOP-92 NSCLC = test system: HOP-92 NSCLC
NCI-H226 lung = test system: NCI-H226 lung
SK-MEL-28 melanoma = test system: SK-MEL-28 melanoma
LOX IMVI melanoma = test system: LOX IMVI melanoma
ACHN renal = test system: ACHN renal
DU-145 prostate = test system: DU-145 prostate
MOLT-4 leukemia = test system: MOLT-4 leukemia
MDA-MB-231 breast = test system: MDA-MB-231 breast
SF-268 CNS = test system: SF-268 CNS
CAKI-1 renal = test system: CAKI-1 renal
SR leukemia = test system: SR leukemia
MALME-3M melanoma = test system: MALME-3M melanoma
TK-10 renal = test system: TK-10 renal
COLO 205 colon = test system: COLO 205 colon
RPMI-8226 leukemia = test system: RPMI-8226 leukemia
NCI-H322M lung = test system: NCI-H322M lung
KM12 colon = test system: KM12 colon
HS 578T breast = test system: HS 578T breast
EKVX NSCLC = test system: EKVX NSCLC
UACC-257 melanoma = test system: UACC-257 melanoma
HT29 colon = test system: HT29 colon
NCI/ADR-RES ovarian = test system: NCI/ADR-RES ovarian
SK-MEL-2 melanoma = test system: SK-MEL-2 melanoma
OVCAR-8 ovarian = test system: OVCAR-8 ovarian
HCC-2998 colon = test system: HCC-2998 colon
MCF7 breast = test system: MCF7 breast
NCI-H23 lung = test system: NCI-H23 lung
IGROV1 ovarian = test system: IGROV1 ovarian
UACC-62 melanoma = test system: UACC-62 melanoma
RXF 393 renal = test system: RXF 393 renal
NCI-H460 NSCLC = test system: NCI-H460 NSCLC
SK-MEL-5 melanoma = test system: SK-MEL-5 melanoma
PC-3 prostate = test system: PC-3 prostate
SK-OV-3 ovarian = test system: SK-OV-3 ovarian
SNB-19 CNS = test system: SNB-19 CNS

CC1(C)CC[C@H](Nc2ncc(C(F)(F)F)c(-c3c[nH]c4c(P(C)(C)=O)c(C#N)ccc34)n2)CN1
GI50 (OVCAR-3 ovarian): < 0.01 µM
TGI (OVCAR-3 ovarian): < 0.01 µM
GI50 (MDA-MB-468 breast): 1.36 µM
TGI (MDA-MB-468 breast): 3.01 µM
GI50 (CCRF-CEM leukemia): 0.0546 µM
TGI (CCRF-CEM leukemia): 1.36 µM
GI50 (HL-60(TB) leukemia): < 0.01 µM
TGI (HL-60(TB) leukemia): 0.126 µM
GI50 (OVCAR-5 ovarian): 0.182 µM
TGI (OVCAR-5 ovarian): 9.82 µM
GI50 (SNB-75 CNS): 1.57 µM
TGI (SNB-75 CNS): 3.2 µM
GI50 (MDA-MB-435 melanoma): 0.114 µM
TGI (MDA-MB-435 melanoma): 2.72 µM
GI50 (OVCAR-4 ovarian): 0.0213 µM
TGI (OVCAR-4 ovarian): 1.42 µM
GI50 (U251 glioblastoma): 0.0133 µM
TGI (U251 glioblastoma): 10.4 µM
GI50 (A498 renal): 0.0197 µM
TGI (A498 renal): 6.54 µM
GI50 (SF-295 CNS): 0.0675 µM
TGI (SF-295 CNS): 4.57 µM
GI50 (A549 NSCLC): 0.0663 µM
TGI (A549 NSCLC): 12 µM
GI50 (BT-549 breast): 0.0113 µM
TGI (BT-549 breast): 0.205 µM
GI50 (SW-620 colon): < 0.01 µM
TGI (SW-620 colon): 10.2 µM
GI50 (K-562 leukemia): < 0.01 µM
TGI (K-562 leukemia): 11.2 µM
GI50 (SN12C renal): < 0.01 µM
TGI (SN12C renal): 2.87 µM
GI50 (HCT-15 colon): 0.0659 µM
TGI (HCT-15 colon): 4.37 µM
GI50 (UO-31 renal): 0.335 µM
TGI (UO-31 renal): 8.12 µM
GI50 (HOP-62 NSCLC): < 0.01 µM
TGI (HOP-62 NSCLC): 0.0182 µM
GI50 (T-47D breast): 0.994 µM
TGI (T-47D breast): 10.2 µM
GI50 ([…]-0 renal): < 0.01 µM
TGI (786-0 renal): 6.18 µM
GI50 (M14 melanoma): 0.0168 µM
TGI (M14 melanoma): 2.21 µM
GI50 (SF-539 CNS): < 0.01 µM
TGI (SF-539 CNS): 1.3 µM
GI50 (NCI-H522 lung): < 0.01 µM
TGI (NCI-H522 lung): 2.42 µM
GI50 (HOP-92 NSCLC): 2.31 µM
TGI (HOP-92 NSCLC): 11.6 µM
GI50 (NCI-H226 lung): 0.577 µM
TGI (NCI-H226 lung): 12.6 µM
GI50 (SK-MEL-28 melanoma): < 0.01 µM
TGI (SK-MEL-28 melanoma): 1.52 µM
GI50 (LOX IMVI melanoma): < 0.01 µM
TGI (LOX IMVI melanoma): 0.213 µM
GI50 (ACHN renal): 0.0736 µM
TGI (ACHN renal): 8.68 µM
GI50 (DU-145 prostate): < 0.01 µM
TGI (DU-145 prostate): 3.79 µM
GI50 (MOLT-4 leukemia): < 0.01 µM
TGI (MOLT-4 leukemia): < 0.01 µM
GI50 (MDA-MB-231 breast): 1.19 µM
TGI (MDA-MB-231 breast): 10.3 µM
GI50 (SF-268 CNS): 0.132 µM
TGI (SF-268 CNS): 1.99 µM
GI50 (CAKI-1 renal): 0.0388 µM
TGI (CAKI-1 renal): 12.3 µM
GI50 (SR leukemia): < 0.01 µM
TGI (SR leukemia): < 0.01 µM
GI50 (MALME-3M melanoma): 0.0276 µM
TGI (MALME-3M melanoma): 2.42 µM
GI50 (TK-10 renal): 0.887 µM
TGI (TK-10 renal): 10.4 µM
GI50 (COLO 205 colon): < 0.01 µM
TGI (COLO 205 colon): 1.45 µM
GI50 (RPMI-8226 leukemia): < 0.01 µM
TGI (RPMI-8226 leukemia): < 0.01 µM
GI50 (NCI-H322M lung): 0.644 µM
TGI (NCI-H322M lung): 3.14 µM
GI50 (KM12 colon): < 0.01 µM
TGI (KM12 colon): 1.68 µM
GI50 (HS 578T breast): 0.301 µM
TGI (HS 578T breast): 1.62 µM
GI50 (EKVX NSCLC): 0.361 µM
TGI (EKVX NSCLC): 3.64 µM
GI50 (UACC-257 melanoma): 1.02 µM
TGI (UACC-257 melanoma): 3.45 µM
GI50 (HT29 colon): 2.06 µM
TGI (HT29 colon): 28.3 µM
GI50 (NCI/ADR-RES ovarian): 2.5 µM
TGI (NCI/ADR-RES ovarian): 12.6 µM
GI50 (SK-MEL-2 melanoma): 1.22 µM
TGI (SK-MEL-2 melanoma): 3.17 µM
GI50 (OVCAR-8 ovarian): 0.0743 µM
TGI (OVCAR-8 ovarian): 6.28 µM
GI50 (HCC-2998 colon): < 0.01 µM
TGI (HCC-2998 colon): 4.21 µM
GI50 (MCF7 breast): < 0.01 µM
TGI (MCF7 breast): 1.45 µM
GI50 (NCI-H23 lung): < 0.01 µM
TGI (NCI-H23 lung): 1.47 µM
GI50 (IGROV1 ovarian): < 0.01 µM
TGI (IGROV1 ovarian): 13.8 µM
GI50 (UACC-62 melanoma): < 0.01 µM
TGI (UACC-62 melanoma): 0.0309 µM
GI50 (RXF 393 renal): 1.51 µM
TGI (RXF 393 renal): 2.99 µM
GI50 (NCI-H460 NSCLC): < 0.01 µM
TGI (NCI-H460 NSCLC): < 0.01 µM
GI50 (SK-MEL-5 melanoma): 0.0438 µM
TGI (SK-MEL-5 melanoma): 1.42 µM
GI50 (PC-3 prostate): < 0.01 µM
TGI (PC-3 prostate): 10.8 µM
GI50 (SK-OV-3 ovarian): 1.13 µM
TGI (SK-OV-3 ovarian): 6.25 µM
GI50 (SNB-19 CNS): 1 µM
TGI (SNB-19 CNS): 12.8 µM
